Experimental data: the CheMixHub drug solubility set

Experiment: xn = mol fraction of the nth substance listed, in the solute-free solvent

Clc1ncnc2[nH]ccc12 + C1CCOC1 + CC#N
solubility (g/100 g solution)
Conditions	278.15 K	283.15 K	288.15 K	293.15 K	298.15 K	303.15 K	308.15 K	313.15 K	318.15 K	323.15 K
x2 = 0.1144	1.32	1.6	1.93	2.31	2.76	3.28	3.83	4.5	5.24	6.02
x2 = 0.2441	2.03	2.39	2.84	3.33	3.92	4.49	5.24	5.97	6.81	7.73
x2 = 0.3923	3.17	3.65	4.24	4.84	5.58	6.34	7.13	8.04	9.06	10.1
x2 = 0.4748	3.9	4.49	5.13	5.83	6.63	7.45	8.34	9.34	10.4	11.5
x2 = 0.5636	5.02	5.61	6.32	7.09	8	8.89	9.89	10.9	12	13.2
x2 = 0.7635	7.14	8	8.83	9.79	10.7	11.8	12.8	14	15.2	16.4

Clc1ncnc2[nH]ccc12 + C1CCOC1 + CC(C)O
solubility (g/100 g solution)
Conditions	278.15 K	283.15 K	288.15 K	293.15 K	298.15 K	303.15 K	308.15 K	313.15 K	318.15 K	323.15 K
x2 = 0.1584	3.68	4.2	4.8	5.46	6.15	6.89	7.74	8.58	9.6	10.6
x2 = 0.32	5.12	5.79	6.49	7.25	8.17	9.04	9.96	10.9	12	13.2
x2 = 0.4848	6.63	7.38	8.22	9.03	9.99	10.9	12	13.1	14.2	15.3
x2 = 0.5685	7.34	8.12	8.96	9.81	10.8	11.9	12.8	14	15.1	16.3
x2 = 0.6531	7.99	8.83	9.69	10.6	11.6	12.6	13.7	14.7	15.8	17
x2 = 0.8247	8.95	9.82	10.7	11.6	12.6	13.5	14.6	15.7	16.7	17.9

Clc1ncnc2[nH]ccc12 + C1CCOC1 + CCOC(C)=O
solubility (g/100 g solution)
Conditions	278.15 K	283.15 K	288.15 K	293.15 K	298.15 K	303.15 K	308.15 K	313.15 K	318.15 K	323.15 K
x2 = 0.1937	2.62	2.95	3.32	3.75	4.21	4.72	5.25	5.79	6.4	7.07
x2 = 0.3753	3.46	3.9	4.38	4.87	5.45	6.03	6.66	7.34	8.06	8.83
x2 = 0.5458	4.65	5.2	5.79	6.4	7.13	7.83	8.57	9.41	10.2	11.2
x2 = 0.6272	5.34	5.93	6.58	7.23	8	8.79	9.64	10.5	11.4	12.4
x2 = 0.7061	5.97	6.66	7.32	8.1	8.9	9.77	10.6	11.5	12.6	13.5
x2 = 0.8573	7.35	8.08	8.82	9.69	10.6	11.6	12.5	13.5	14.6	15.7

Clc1ncnc2[nH]ccc12 + C1CCOC1 + CO
solubility (g/100 g solution)
Conditions	278.15 K	283.15 K	288.15 K	293.15 K	298.15 K	303.15 K	308.15 K	313.15 K	318.15 K	323.15 K
x2 = 0.09054	4.18	4.85	5.59	6.45	7.41	8.85	9.6	10.8	12.2	13.6
x2 = 0.1993	6.2	7.11	8.13	9.15	10.3	11.6	12.9	14.3	15.9	17.4
x2 = 0.3323	8.17	9.22	10.3	11.4	12.7	14.1	15.4	17	18.5	20.2
x2 = 0.4107	8.75	9.76	10.9	12	13.4	14.6	16.1	17.5	19.1	20.7
x2 = 0.4989	9.02	10	11.1	12.2	13.5	14.8	16.1	17.5	18.9	20.5
x2 = 0.7134	8.95	9.87	10.8	11.8	13	14	15.2	16.5	17.7	19.1

CN1CCN(C(=O)OC2c3nccnc3C(=O)N2c2ccc(Cl)cn2)CC1 (centres undefined) + C1CCOC1 + O
solubility (g/100 g solution)
Conditions	x2 = 0.3	x2 = 0.4	x2 = 0.5	x2 = 0.6	x2 = 0.7	x2 = 0.8	x2 = 0.9
288.15 K	0.41	0.79	1.33	2.06	2.8	3.32	3.83
298.15 K	0.626	1.14	1.83	2.66	3.57	4.41	4.87
308.15 K	0.91	1.54	2.43	3.54	4.53	5.71	6.18
318.15 K	1.13	2	3.21	4.68	6.19	7.53	8.07
328.15 K	1.47	2.59	4.15	6.16	8.4	9.55	9.98

Cc1ccc(Nc2nccc(N(C)c3ccc4c(C)n(C)nc4c3)n2)cc1S(N)(=O)=O + CC#N + CC(C)O
solubility (g/100 g solution)
Conditions	288.15 K	293.15 K	298.15 K	303.15 K	308.15 K	313.15 K	318.15 K	323.15 K	328.15 K
x2 = 0.2679	0.00834	0.0123	0.0162	0.0208	0.0257	0.0311	0.0374	0.0456	0.0557
x2 = 0.4939	0.0116	0.0198	0.0273	0.0362	0.0457	0.0552	0.0651	0.0758	0.0876
x2 = 0.6871	0.0161	0.0249	0.0344	0.0445	0.0553	0.0662	0.079	0.0943	0.113
x2 = 0.8541	0.0119	0.0172	0.0243	0.0311	0.0393	0.0478	0.0563	0.0666	0.0803

O=C1NS(=O)(=O)c2ccccc21 + CC#N + CC(C)O
solubility (g/100 g solution)
Conditions	x2 = 0.0998	x2 = 0.2002	x2 = 0.2999	x2 = 0.3996	x2 = 0.5004	x2 = 0.5997	x2 = 0.7001	x2 = 0.7997	x2 = 0.8996
293.15 K	4.08	5.79	7.19	8.27	8.87	8.79	8.19	7	5.08
298.15 K	4.75	6.64	8.05	9.07	9.79	9.66	8.97	7.68	5.75
303.15 K	5.49	7.5	9.3	10.4	11.2	10.8	10.1	8.77	6.38
308.15 K	6.33	8.56	10.5	11.7	12.3	12.3	11.5	9.73	7.32
313.15 K	7.35	10	12.1	13.4	14.2	14.1	13.1	11.2	8.37
318.15 K	8.79	11.8	14.1	15.5	16.3	16.2	15.1	12.9	9.59
323.15 K	10.3	13.5	16	17.6	18.3	18	16.8	14.3	10.7

Cc1ccc(Nc2nccc(N(C)c3ccc4c(C)n(C)nc4c3)n2)cc1S(N)(=O)=O + CC#N + CCCCO
solubility (g/100 g solution)
Conditions	288.15 K	293.15 K	298.15 K	303.15 K	308.15 K	313.15 K	318.15 K	323.15 K	328.15 K
x2 = 0.311	0.00876	0.015	0.0216	0.0293	0.0367	0.0447	0.0534	0.0638	0.0746
x2 = 0.5462	0.0159	0.0251	0.0355	0.0464	0.0592	0.0722	0.0852	0.1	0.117
x2 = 0.7303	0.0138	0.0237	0.0349	0.047	0.0614	0.0758	0.0904	0.107	0.126
x2 = 0.8784	0.0109	0.0167	0.0237	0.0316	0.0398	0.05	0.0607	0.0728	0.0871

Cc1ccc(Nc2nccc(N(C)c3ccc4c(C)n(C)nc4c3)n2)cc1S(N)(=O)=O + CC#N + CCCO
solubility (g/100 g solution)
Conditions	288.15 K	293.15 K	298.15 K	303.15 K	308.15 K	313.15 K	318.15 K	323.15 K	328.15 K
x2 = 0.2679	0.0118	0.0186	0.0265	0.0356	0.0456	0.0555	0.066	0.0779	0.0924
x2 = 0.4939	0.0196	0.031	0.0432	0.057	0.0716	0.0875	0.104	0.123	0.145
x2 = 0.6871	0.0177	0.0276	0.0399	0.0523	0.0687	0.0849	0.102	0.12	0.143
x2 = 0.8541	0.0117	0.0175	0.0245	0.0326	0.0408	0.0514	0.0625	0.075	0.0903

O=C1NS(=O)(=O)c2ccccc21 + CC#N + CCO
solubility (g/100 g solution)
Conditions	x2 = 0.0999	x2 = 0.2002	x2 = 0.2997	x2 = 0.3998	x2 = 0.5002	x2 = 0.5999	x2 = 0.7001	x2 = 0.7999	x2 = 0.8999
293.15 K	5.33	7.27	8.67	9.52	9.7	9.58	8.96	7.58	5.52
298.15 K	5.91	7.97	9.45	10.3	10.7	10.6	9.85	8.34	6.08
303.15 K	6.8	9.11	10.7	11.7	12.1	11.9	11.1	9.45	6.93
308.15 K	7.49	9.96	11.7	12.7	13.5	13.2	12.3	10.5	7.63
313.15 K	8.72	11.5	13.3	14.4	14.8	14.6	13.6	11.7	8.61
318.15 K	10.1	13.2	15.3	16.5	16.8	16.7	15.4	13.3	9.87
323.15 K	11.4	14.7	16.9	18.1	18.5	18.2	17	14.6	10.9
